Tests used:
[1] = test system: HBV DNA in HepG2.2.15 cells; assay: HBV in vitro assay quantitive qPCR test; type: cell-based; details: Hepatitis B virus
Procedure: • 1 Purpose of the test: • The content of HBV DNA in HepG2.2.15 cells was detected by real time quantitive qPCR test to evaluate an inhibitory action of the compound on HBV with an EC50 value of the compound as an indicator. • 2 Experimental materials: • 2.1 Cell lines: HepG2.2.15 Cells • HepG2.2.15 cell culture media (DMEM/F12, Invitrogen-11330057; 10% serum, Invitrogen-10099141; 100 units/ml Penicillin and 10 μg/ml Streptomycin, Invitrogen-15140122; 1% non-essential amino acid, Invitrogen-1140076; 2 mM L-GLUTAMINE, Invitrogen-25030081; 300 μg/ml Geneticin, Invitrogen-10131027 • 2.2 Reagents: • trypsin (Invitrogen-25300062) • DPBS (Hyclone-SH30028.01B) • DMSO (Sigma-D2650-100ML) • High-Throughput DNA Purification Kit (QIAamp 96 DNA Blood Kit, Qiagen-51162) • Quantitative Fast Start Universal Probe Reagent (FastStart Universal Probe Master, Roche-04914058001) • 2.3 Materials and Instruments: • 96-well cell culture plate (Corning-3599) • CO2 Incubator (HERA-CELL-240) • Optical Sealing Membrane (ABI-4311971) • Quantitative PCR 96-well Plate (Applied Biosystems-4306737) • Fluorescent Quantitative PCR Instrument (Applied Biosystems-7500 real time PCR system) • 3. Testing steps and Methods: • 3.1 HepG2.2.15 cells (4×10^4 cells/well) were planted into a 96-well plate, and at 37° C., 5% CO2 cultured overnight. • 3.2 On Day 2, the compounds were diluted in totally 8 concentrations with a dilution gradient of three times. The compounds at different concentrations were added into the culture wells in duplicate. The final concentration of DMSO in the culture media was 1%. 1 μM GLS4 was used as 100% inhibition control; 1% DMSO as 0% inhibition control. • 3.3 On Day 5, replacing with the fresh culture media containing the compound was performed. • 3.4 On Day 8, the culture media in the culture wells was collected, and DNA was extracted with a High-Throughput DNA Purification Kit (Qiagen-51162), See Specification of the product for specific steps. • 3.5 Preparation of PCR Reaction Mixture was shown in Table 1:
• 3.6 To each well of a 96-well PCR plate was added 15 μl reaction mixture, and then to each well was added 10 μl sample DNA or HBV DNA standard. • 3.7 The reaction conditions of PCR were: heating at 95° C. for 10 minutes; then at 95° C. denaturing for 15 seconds, and at 60° C. extending for 1 minute, totally 40 cycles. • 3.8 Data Analysis: • 3.8.1 The inhibition percentage was calculated: % Inh.=[1−(DNA copy number in sample−DNA copy number in 1 μM GLS4)/(DNA copy number in DMSO control−DNA copy number in 1 μM GLS4)]×100. • 3.8.2 Calculating EC50: the concentration of the compound for 50% inhibition of HBV (EC50) was calculated by using GraphPad Prism Software. • 4 Testing Results • The testing results were shown in Table 3: […]

[2] = test system: HBV DNA in HepG2.2.15 cells; assay: HBV in vitro dot-blot hybridization test; type: cell-based, Hepatitis B virus
Outline: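 HepG2.2.15 cells (4×10^4/well) treated in duplicate with 6 five-fold compound dilutions (1% DMSO final), medium with compound renewed on day 5, cells harvested day 8-9. Intracellular HBV DNA quantified by dot-blot with DIG-labelled probe; % inhibition normalised to 1 μM GLS4 (100%) and DMSO (0%), EC50 fitted.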

[3] = qPCR assay, HepG2.2.15 cells, read-out: Concentration for 50% inhibition of HBV (EC50)value
[4] = summary list of target compounds, Examples 166-220 (values of Table 3), HepG2.2.15 cells, read-out: BIOACTIVITY (inhibitory actions on HBV DNA, EC50)
[5] = Hepatitis B virus, HepG2.2.15, dot-blot hybridization assay, read-out: Concentration for 50% inhibition of HBV (EC50)value
[6] = Hepatitis B virus, HepG2.2.15, summary list of target compounds, Examples 1-165 (same as Table 2), read-out: BIOACTIVITY (inhibitory actions on HBV DNA, EC50)

Structure (SMILES) | EC50 [2, 5] [nM] | EC50 [2, 6] [nM] | further results
COC(=O)C1=C2C[C@H](NS(N)(=O)=O)CN2C(c2ncc(F)cc2F)=N[C@H]1c1ccc(F)c(F)c1F [Example 219] | – | – | EC50 [1, 3]: 100 to 500 nM; EC50 [1, 4]: 100 to 500 nM
COC(=O)C1=C2C[C@H](NS(=O)(=O)NC(C)(C)C)CN2C(c2nccs2)=N[C@H]1c1ccc(F)c(F)c1F [Example 210] | – | – | EC50 [1, 3]: < 100 nM; EC50 [1, 4]: < 100 nM
COC(=O)C1=C2C[C@H](NS(N)(=O)=O)CN2C(c2nccs2)=N[C@H]1c1cccc(F)c1F [Example 220] | – | – | EC50 [1, 3]: < 100 nM; EC50 [1, 4]: < 100 nM
[H]/N=C(\N)N[C@H]1CC2=C(C(=O)OC)[C@H](c3ccc(F)cc3Cl)N=C(c3nccs3)N2C1 [Example 195] | – | – | EC50 [1, 3]: 1000 to 5000 nM; EC50 [1, 4]: 1000 to 5000 nM
CCOC(=O)C1=C2CN(CCO)S(=O)(=O)CN2C(c2nccs2)=N[C@H]1c1ccc(F)cc1Cl [Example 176] | – | – | EC50 [1, 3]: 1000 to 5000 nM; EC50 [1, 4]: 1000 to 5000 nM
COC(=O)C1=C2C[C@H](NS(C)(=O)=O)CN2C(c2nccs2)=N[C@H]1c1sccc1Cl [Example 177] | – | – | EC50 ([1]; HepG2.2.15, read-out: BIOACTIVITY (inhibitory actions on HBV DNA, EC50)): < 100 nM; EC50 ([1]; HepG2.2.15, read-out: Concentration for 50% inhibition of HBV (EC50)value): < 100 nM
COC(=O)C1=C2C[C@H](NS(=O)(=O)CCN(C)C)CN2C(c2nccs2)=N[C@H]1c1ccc(F)cc1Cl [Example 166] | – | – | EC50 [1, 3]: < 100 nM; EC50 [1, 4]: < 100 nM
CCOC(=O)C1=C2C[C@@H](NC(=O)OC(C)(C)C)CN2C(c2nccs2)=N[C@H]1c1ccc(F)cc1Br [Example 39] | < 100 | < 100 | –
CCOC(=O)C1=C2C[C@@H](N)CN2C(c2nccs2)=N[C@H]1c1ccc(F)cc1Br [Example 40] | 1000 to 5000 | 1000 to 5000 | –
CCOC(=O)C1=C2C[C@H](NS(C)(=O)=O)CN2C(c2nccs2)=N[C@@H]1c1ccc(F)cc1Cl [Example 141] | 500 to 1000 | 500 to 1000 | –
CCOC(=O)C1=C2CC(C(=O)O)CN2C(c2nccs2)=NC1c1ccc(F)cc1Br (racemic) [Example 23] | 1000 to 5000 | 1000 to 5000 | –
CCOC(=O)C1=C2CCCN2C(c2nccs2)=NC1c1ccc(F)c(F)c1 (racemic) [Example 69] | 100 to 500 | 100 to 500 | –
CCOC(=O)C1=C2CCCN2C(c2nccs2)=NC1c1ccc(F)cc1Cl (racemic) [Example 1] | 100 to 500 | 100 to 500 | –
CCOC(=O)C1=C2C[C@H](NS(C)(=O)=O)CN2C(c2nccs2)=N[C@H]1c1ccc(Cl)cc1Cl [Example 151] | < 100 | < 100 | –
CCOC(=O)C1=C2C[C@H](CC(=O)O)CN2C(c2nccs2)=N[C@H]1c1ccc(F)cc1Br [Example 14] | 500 to 1000 | 500 to 1000 | –
CNS(=O)(=O)N[C@H]1CC2=C(C(=O)OC)[C@H](c3ccc(F)cc3Cl)N=C(c3nccs3)N2C1 [Example 160] | < 100 | < 100 | –
COCC1CC2=C(C(=O)OC)C(c3ccc(F)cc3Br)N=C(c3nccs3)N2C1 (racemic) [Example 10] | 1000 to 5000 | 1000 to 5000 | –
CCOC(=O)C1=C2CN(C(=O)C3CC3)CCN2C(c2nccs2)=N[C@H]1c1ccc(F)cc1Br [Example 91] | 100 to 500 | 100 to 500 | –
CCOC(=O)C1=C2CCCN2C(c2nccs2)=NC1c1ccc(F)cc1 (racemic) [Example 73] | 1000 to 5000 | 1000 to 5000 | –
CCOC(=O)C1=C2CCCN2C(c2nccs2)=NC1c1ccc(F)cc1Br (racemic) [Example 4] | 100 to 500 | 100 to 500 | –
CCOC(=O)C1=C2CC(NC(=O)NC)CN2C(c2nccs2)=N[C@H]1c1ccc(F)cc1Br (mixture of isomers) [Example 51] | 100 to 500 | 100 to 500 | –

Structure (SMILES) | EC50 [2, 5] [nM] | EC50 [2, 6] [nM] | further results
CCOC(=O)C1=C2C[C@@H](NC(C)=O)CN2C(c2nccs2)=N[C@H]1c1ccc(F)cc1Br [Example 49] | 100 to 500 | 100 to 500 | –
CCOC(=O)C1=C2CCCN2C(c2nccs2)=N[C@H]1c1ccc(F)cc1Br [Example 5] | 100 to 500 | 100 to 500 | –
CCOC(=O)C1=C2C[C@@H](NC(=O)OC)CN2C(c2nccs2)=N[C@H]1c1ccc(F)cc1Br [Example 43] | 100 to 500 | 100 to 500 | –
CCOC(=O)C1=C2CN(C(=O)C(C)C)CCN2C(c2nccs2)=N[C@H]1c1ccc(F)cc1Br [Example 92] | < 100 | < 100 | –
CCOC(=O)C1=C2CN(C(C)=O)CCN2C(c2nccs2)=NC1c1ccc(F)cc1Br (racemic) [Example 86] | 500 to 1000 | 500 to 1000 | –
CCOC(=O)C1=C2C[C@H](NS(C)(=O)=O)CN2C(c2nncs2)=N[C@H]1c1ccc(F)cc1Cl [Example 154] | 100 to 500 | 100 to 500 | –
CCOC(=O)C1=C2C[C@@H](CN3CCOCC3)CN2C(c2nccs2)=N[C@H]1c1ccc(F)cc1Br [Example 16] | 1000 to 5000 | 1000 to 5000 | –
CCOC(=O)C1=C2C[C@H](NC(C)=O)CN2C(c2nccs2)=N[C@H]1c1ccc(F)cc1Br [Example 50] | 1000 to 5000 | 1000 to 5000 | –
CCOC(=O)C1=C2CCCN2C(c2nccs2)=NC1(C)c1ccc(F)cc1 (racemic) [Example 75] | 1000 to 5000 | 1000 to 5000 | –
CCOC(=O)C1=C2C[C@@H](NS(=O)(=O)NC)CN2C(c2nccs2)=N[C@H]1c1ccc(F)cc1Br [Example 55] | < 100 | < 100 | –
CCOC(=O)C1=C2CC(NC(C)=O)CN2C(c2nccs2)=N[C@H]1c1ccc(F)cc1Br (mixture of isomers) [Example 48] | 100 to 500 | 100 to 500 | –
CCOC(=O)C1=C2C[C@@H](CO)CN2C(c2nccs2)=N[C@H]1c1ccc(F)cc1Br [Example 6] | < 100 | < 100 | –
CCOC(=O)C1=C2C[C@H](N)CN2C(c2nccs2)=N[C@H]1c1ccc(F)cc1Br [Example 41] | 1000 to 5000 | 1000 to 5000 | –
CCOC(=O)C1=C2C[C@H](NS(C)(=O)=O)CN2C(c2nccs2)=N[C@H]1c1ccc(F)cc1Cl [Example 125] | < 100 | < 100 | –
CCOC(=O)C1=C2C[C@@H](CC#N)CN2C(c2nccs2)=NC1c1ccc(F)cc1Br (mixture of isomers) [Example 12] | – | – | EC50 ([2]; dot-blot hybridization assay, read-out: Concentration for 50% inhibition of HBV (EC50)value): 100 to 500 nM; EC50 ([2]; summary list of target compounds, Examples 1-165 (same as Table 2), read-out: BIOACTIVITY (inhibitory actions on HBV DNA, EC50)): 100 to 500 nM
CCOC(=O)C1=C2CN(C(=O)NC)CCN2C(c2nccs2)=N[C@H]1c1ccc(F)cc1Br [Example 88] | 500 to 1000 | 500 to 1000 | –
CCOC(=O)C1=C2CCCN2C(c2nccs2)=NC1c1cc(Cl)sc1Cl (racemic) [Example 74] | 1000 to 5000 | 1000 to 5000 | –
CCOC(=O)C1=C2C[C@H](NS(=O)(=O)C(F)(F)F)CN2C(c2nccs2)=N[C@H]1c1ccc(F)cc1Br [Example 64] | 100 to 500 | 100 to 500 | –
CCOC(=O)C1=C2CNC(=O)CN2C(c2nccs2)=NC1c1ccc(F)cc1Br (racemic) [Example 104] | 1000 to 5000 | 1000 to 5000 | –
CCOC(=O)C1=C2CN(Cc3ccc(OC)cc3)CCN2C(c2nccs2)=NC1c1ccc(F)cc1Br (racemic) [Example 97] | 1000 to 5000 | 1000 to 5000 | –
CCOC(=O)C1=C2C[C@H](CN3CCOCC3)CN2C(c2nccs2)=N[C@H]1c1ccc(F)cc1Br [Example 15] | 100 to 500 | 100 to 500 | –

Reference: patent US9938301B2, “Dihydropyrimido fused ring derivative as HBV inhibitor” (QILU PHARMACEUTICAL CO., LTD., priority 2014, dated 2018)
